The source of these data is US20040132648A1, “Remedies and/or preventives for conformational diseases” (priority 2001, published 2004).

Series [1] has as its system PC12 cells.
The test system of series [2] is PC12 cells. The experiment in a line: Cell death by β-amyloid monitored by lactate dehydrogenase release. The class given is cell-based, rat. The settings on record: for cell death by β-amyloid vs control group: 48 hours, FIG. 3.
In series [3] the test system is PC12 cells. The experiment in a line: Neuroprotective action against β-amyloid, viable cell count / survival rate by WST-8 method. On the set-up: key to Neuroprotective action: +, P < 0.05 when compared with the no neuropeptide-added group. The settings on record: for neuroprotective action against cell death by β-amyloid (cell survival rate): co-existing with β-amyloid, PACAP27 10^−9 M; for Neuroprotective action: amyloid (50 μM), cell survival rate vs no peptide; for relationship between concentration and neuroprotective action against β-amyloid: neuropeptides at various concentrations. The class given is cell-based, rat. The protocol:
An experiment was performed similarly to Example 5, and then the neuroprotective action against cell death by β-amyloid of the following PACAP-related neuropeptides (peptides 1, 2, 4, 5, 7, 8, 15, 16, 17, 19, 21, 26, 27, 28, 29, 30, 31, 32, 33, 34, 35, 36, 37, 38 and 39) and VIP-related neuropeptides (peptides 3, 9, 10, 11, 12, 13, 14, 18, 20, 22, 23, 24 and 25) was confirmed. Specifically, amyloid (50 μM) and each of the various PACAP-related neuropeptides and VIP-related neuropeptides were added to the cultured PC12 cells. The number of […] calculated by the WST-8 method, so that comparison and examination was performed for the neuroprotective action of these various peptides against amyloid. If the neuropeptides had neuroprotective action, a clear difference in viable cell count can be observed between cases in which neuropeptides were added and cases in which neuropeptides were not added. In PC12 cells added with each of the various neuropeptides, a case wherein a higher cell survival rate (P<0.05) was observed compared with groups in which neuropeptides had not been added, was determined as having neuroprotective action. The results are shown in Table 1 and Table 2. β-amyloid was added to PC12 cells that had been cultured similarly to Example 5. At this time, neuropeptides PACAP27, VIP and humanin, and a cell-permeable cAMP derivative were allowed to respectively co-exist, so that the effect of these neuropeptides against cell death by β-amyloid was confirmed. Cell death was examined by evaluating cell count using the WST-8 method, and then by calculating cell survival rate. […] In the presence of β-amyloid, approximately 70% of the cells died. […] The neuroprotective action of humanin, a recently found human-derived neuroprotective substance (Proc Natl Acad Sci USA (2001) 98 (11) 6336-6341), was also examined. […] At this time, neuropeptides at various concentrations were allowed to co-exist, so that the relationship between the neuroprotective action and the concentration was investigated. Cells were calculated by the WST-8 method, and then the extent to which cell death by β-amyloid could be attenuated was expressed numerically.

Series [4] has as its system caspase-3. The series can be described thus: Caspase-3 activating action of β-amyloid and its suppression (Ac-DEVD-AMC substrate). The class given is cell-based, rat. The settings on record: FIG. 7. The protocol:
PC12 cells that had been cultured almost similarly to Example 4 were cultured in a 24-well plate (2×10^5 cells/well). 10^−5 M β-amyloid was added to the plate. At this time, cAMP derivative (10^−4 M) and neuropeptide PACAP (10^−9 M) were added respectively, and then the action of activating caspase-3, an apoptosis-related enzyme, was examined. The caspase-3 activating action was examined using Ac-DEVD-AMC, a caspase-3 specific substrate. […] Further, by the addition of neuropeptide PACAP, an incomplete, approximately 50% suppressive effect was shown. […] Taking into consideration that this suppressive action is not complete, other action mechanisms may also be involved.

Series [5] concerns PC12 cells. The class given is cell-based, rat.
The mark [6] stands for this setting: PACAP-related neuropeptide 10^−9 M.
Setting [7] is: VIP-related neuropeptide 10^−7 M.

Where two headings read alike, the source gives them in different places.

Turning to Prion (106-126), the “cell death (lactate dehydrogenase released to the medium)” value in series [1] was “cell death occurs depending on the concentration”.

β-amyloid 1-42: the “cell death by β-amyloid vs control group” value in series [2] (0.2 μM insulin-containing serum-free DMEM) was “significant cell death”; in series [2] (0.25% horse serum and 0.25% newborn calf serum-containing DMEM), “significant cell death”; in series [2] (5% horse serum and 5% newborn calf serum-containing DMEM), “no cell death”. Besides, the “cells died in the presence of β-amyloid” value in series [3] (β-amyloid alone, WST-8, FIG. 5) was “approximately 70%”. The “activity of caspase-3” value in series [4] (addition of 10^−5 M β-amyloid) is recorded as “improved”.

For the compound `CCCC(=O)Nc1ncnc2c1ncn2[C@@H]1O[C@@H]2COP(=O)(O)O[C@H]2[C@H]1OC(=O)CCC` [dibutyryl-cAMP, reference compound], the “neuroprotective action against cell death by β-amyloid (cell survival rate)” value (“neuroprotective action … (cell survival rate)” for short) in series [3] (FIG. 5) is on record as “cell death was very strongly suppressed”. For the same compound, the “effect on caspase-3 activation by β-amyloid” value in series [4] (10^−5 M β-amyloid, cAMP derivative 10^−4 M) is recorded as “significantly attenuated”.

Regarding “PACAP-like-peptide (stargazer-PACAP) (H-HSDGIFTDSYSRYRKQMAVQKYLAAVLGRRYRQRVRNK-NH2; ends and bridges not checked) [Peptide 5]”, the Neuroprotective action result in series [3] (setting [6]) is “+”.

For the compound “PACAP27 highly basic derivative C (H-HSDGIFTDSYSRYRRQLAVRRYLAAVLGRR-NH2; ends and bridges not checked) [Peptide 17]”, in series [3] (setting [6]), the Neuroprotective action entry was “+”.

Take “[G^4, I^5]-VIP (H-HSDGIFTDNYTRLRKQMAVKKYLNSILN-NH2; ends and bridges not checked) [Peptide 9]”: in series [3] (setting [7]), the Neuroprotective action result is recorded as “+”.

“PACAP short form (H-HSDGIFTDSYSRYRKQMAVKKYL-NH2; ends and bridges not checked) [Peptide 19]”: the Neuroprotective action entry in series [3] (setting [6]) is given as “+”.

On to “Pituitary Adenylate Cyclase Activating Polypeptide [PACAP]”, for which the “degree of neuroprotective action against abnormal prion (106-126)” value in series [5] (50 μM abnormal prion (106-126), neuropeptides at various concentrations, FIG. 2) was “even at an extremely low concentrations, PACAP showed a certain degree of neuroprotective action”. Moreover, in series [3] (β-amyloid, FIG. 6), the “neuroprotective action relative to that of VIP” value is “at least 1×10^4 fold”; the “relationship between concentration and neuroprotective action against β-amyloid” value is recorded as “showed neuroprotective action even at an extremely low concentration”. Also, the “concentration at which the neuroprotective effect was strongest” value in series [3] (β-amyloid, various concentrations, FIG. 6) is on record as 10^−9 to 10^−13 M. In series [4] (10^−5 M β-amyloid, PACAP 10^−9 M), the “suppressive effect on caspase-3 activation by β-amyloid” value was “approximately 50%”.

As for “VIP short form (VIP25) (HSDAVFTDNYTRLRKQMAVKKYLNS) [Peptide 23]”, in series [3] (setting [7]), the Neuroprotective action result is reported as “+”.

Regarding [A^4, V^5, N^9]-PACAP27 [Peptide 8], the Neuroprotective action entry in series [3] (setting [6]) was “+”.

As for “PACAP long form (PACAP34) (H-HSDGIFTDSYSRYRKQMAVKKYLAAVLGKRYKQR-NH2; ends and bridges not checked) [Peptide 35]”, in series [3] (setting [6]), the Neuroprotective action entry was “+”.

For the compound “VIP highly basic derivative A (HSDAVFTDNYTRLRRQLAVRRYLNSILNGK) [Peptide 11]”, the Neuroprotective action result in series [3] (setting [7]) is on record as “+”.

On to “PACAP short form (PACAP26) (H-HSDGIFTDSYSRYRKQMAVKKYLAAV-NH2; ends and bridges not checked) [Peptide 28]”, for which the Neuroprotective action entry in series [3] (setting [6]) is “+”.

For the compound “VIP highly basic derivative B (HSDAVFTDNYTRLRRQLAVRRYLNSILNGKR) [Peptide 12]”, the Neuroprotective action entry in series [3] (setting [7]) was “+”.

With “VIP short form (VIP26) (HSDAVFTDNYTRLRKQMAVKKYLNSI) [Peptide 24]”, the Neuroprotective action result in series [3] (setting [7]) is “+”.

As for “PACAP27 highly basic derivative A (H-HSDGIFTDSYSRYRRQLAVRRYLAAVLGK-NH2; ends and bridges not checked) [Peptide 15]”, the Neuroprotective action entry in series [3] (setting [6]) is “+”.

As for “PACAP long form (PACAP31) (H-HSDGIFTDSYSRYRKQMAVKKYLAAVLGKRY-NH2; ends and bridges not checked) [Peptide 32]”, in series [3] (setting [6]), the Neuroprotective action entry is reported as “+”.

Take “VIP (HSDAVFTDNYTRLRKQMAVKKYLNSILN) [Peptide 3]”: the “degree of neuroprotective action against abnormal prion (106-126)” value in series [5] is recorded as “showed neuroprotective action at concentrations higher than that of PACAP”. The Neuroprotective action result in series [3] (setting [7]) was “+”. Also, the “neuroprotective action … (cell survival rate)” value in series [3] (FIG. 5) is given as “showed neuroprotective action against β-amyloid although the effect was weaker than that of PACAP27”. For the same compound, in series [3] (β-amyloid, FIG. 6), the “relationship between concentration and neuroprotective action against β-amyloid” value is recorded as “showed strong neuroprotective action at relatively high concentrations”.

In the case of “Arg-PACAP38 (H-HSDGIFTDSYSRYRRQLAVRRYLAAVLGRRYRQRVRNR-NH2; ends and bridges not checked) [Peptide 4]”, the Neuroprotective action result in series [3] (setting [6]) is listed as “+”.

With “PACAP27 (H-HSDGIFTDSYSRYRKQMAVKKYLAAVL-NH2; ends and bridges not checked) [Peptide 2]”, the “neuroprotective action against cell death by β-amyloid (lactate dehydrogenase released into media)” value in series [2] (β-amyloid 10^−5M, PACAP27 10^−9M, over time, 0.2 μM insulin-containing serum-free DMEM, FIG. 4) is on record as “cell death was very strongly suppressed”. Also, the Neuroprotective action entry in series [3] (setting [6]) was “+”. Besides, the “neuroprotective action … (cell survival rate)” value in series [3] (FIG. 5) was “distinctly strong neuroprotective action”.

For “VIP highly basic derivative C (HSDAVFTDNYTRLRRQLAVRRYLNSILNGRR) [Peptide 13]”, the Neuroprotective action entry in series [3] (setting [7]) is reported as “+”.

With “PACAP-like-peptide (stingray-PACAP) (H-HSDGIFTDSYSRYRKQMAVKKYLAAVLGKRYKPKRRNSGRRVFY-NH2; ends and bridges not checked) [Peptide 21]”, the Neuroprotective action entry in series [3] (setting [6]) is recorded as “+”.
